Source: ChEMBL document CHEMBL5500328, “Comprehensive review on the elaboration of payloads derived from natural products for antibody-drug conjugates” (Eur J Med Chem, 2024)
pIC50, pKd: −log10 of the molar value.

How the values were obtained:
KB = test: Cytotoxicity against human KB cells assessed as reduction in cell viability; type: functional, cell-based
LoVo = test: Cytotoxicity against human LoVo cells; type: functional, cell-based
CCRF-CEM = test: Cytotoxicity against human CCRF-CEM cells assessed as reduction in cell growth; type: functional, cell-based
KB 3-1 = test: Cytotoxicity against human KB-3-1 cells assessed as inhibition of cell growth; type: functional, cell-based
Tubulin = test: Binding affinity to tubulin (unknown origin) assessed as dissociation constant by SPR analysis; type: protein-complex assay, Homo sapiens
[1] = Cytotoxicity against human L540cy assessed as reduction in cell growth incubated for 4 days by CellTiter-Glo assay; type: functional, cell-based; settings: 96 h

COc1ccc(C[C@H]2NC(=O)/C=C/C[C@@H]([C@H](C)[C@H]3O[C@H]3c3ccccc3)OC(=O)[C@H](CC(C)C)OC(=O)[C@H](C)CNC2=O)cc1Cl [CRYPTOPHYCIN 39]
pIC50 (KB): 11.34 | pIC50 (LoVo): 11.12

COc1ccc(C[C@H]2NC(=O)/C=C/C[C@@H]([C@H](C)[C@H]3O[C@H]3c3ccc(F)cc3)OC(=O)[C@H](CC(C)C)OC(=O)C(C)(C)CNC2=O)cc1Cl
pIC50 (CCRF-CEM): 10.48

COc1ccc(C[C@H]2NC(=O)/C=C/C[C@@H]([C@H](C)[C@H]3O[C@H]3c3ccccc3)OC(=O)[C@H](CC(C)C)OC(=O)C(C)(C)CNC2=O)cc1Cl
pIC50 (KB 3-1): 10.82 | pKd (Tubulin): 7.33

CC[C@@]1(O)C(=O)OCc2c1cc1n(c2=O)Cc2cc3c(CN)c4c(cc3nc2-1)OCO4
pIC50 [1]: 9.00
